In US10988523B2, “Modified lipidated Relaxin B chain peptides and their therapeutic use” (Sanofi, priority 2018, dated 2021):
*1 amine or outer side, *2 acyl side, *3 side chain or, on linkers, in order; H or OH if unused. Where a SMILES comes first, the peptide text is derived from it. Side-chain parts run from the residue outwards. [ ]: non-standard residue; d: D form. The star is where a group is joined. PEG12 = NCCOCCOCCOCCOCCOCCOCCOCCOCCOCCOCCOCCOCCC(=O)O; γGlu = O=C(O)[C@H](CCC(=O)[*:2])N[*:1]; 1Nal = N[C@@H](Cc1cccc2ccccc12)C(=O)O; Stearoyl = CCCCCCCCCCCCCCCCCC(=O)*; αMeK = C[C@](N)(CCCCN)C(=O)O; Nle = CCCC[C@H](N)C(=O)O; AEEA = NCCOCCOCC(=O)O; Aib = CC(C)(N)C(=O)O

Experiments:
[1] = target: T1, RXFP1 (Homo sapiens, UniProt Q9HBX9); assay: OVCAR5 cAMP assay (HTRF), RXFP1 agonist activity; format: cell-based; conditions: for EC50: OVCAR5 cells, cAMP HTRF, read-out: EC50 (nM), OVCAR 5 cells (cAMP); for Emax: OVCAR-5, maximal cAMP relative to H2-relaxin maximum (100%), read-out: EMax, OVCAR 5 cells (cAMP)
T1 construct: OVCAR5 cells expressing endogenous RXFP1; endogenous in cells; host or cells: OVCAR5 cells
T1 sequence (Q9HBX9 1-757): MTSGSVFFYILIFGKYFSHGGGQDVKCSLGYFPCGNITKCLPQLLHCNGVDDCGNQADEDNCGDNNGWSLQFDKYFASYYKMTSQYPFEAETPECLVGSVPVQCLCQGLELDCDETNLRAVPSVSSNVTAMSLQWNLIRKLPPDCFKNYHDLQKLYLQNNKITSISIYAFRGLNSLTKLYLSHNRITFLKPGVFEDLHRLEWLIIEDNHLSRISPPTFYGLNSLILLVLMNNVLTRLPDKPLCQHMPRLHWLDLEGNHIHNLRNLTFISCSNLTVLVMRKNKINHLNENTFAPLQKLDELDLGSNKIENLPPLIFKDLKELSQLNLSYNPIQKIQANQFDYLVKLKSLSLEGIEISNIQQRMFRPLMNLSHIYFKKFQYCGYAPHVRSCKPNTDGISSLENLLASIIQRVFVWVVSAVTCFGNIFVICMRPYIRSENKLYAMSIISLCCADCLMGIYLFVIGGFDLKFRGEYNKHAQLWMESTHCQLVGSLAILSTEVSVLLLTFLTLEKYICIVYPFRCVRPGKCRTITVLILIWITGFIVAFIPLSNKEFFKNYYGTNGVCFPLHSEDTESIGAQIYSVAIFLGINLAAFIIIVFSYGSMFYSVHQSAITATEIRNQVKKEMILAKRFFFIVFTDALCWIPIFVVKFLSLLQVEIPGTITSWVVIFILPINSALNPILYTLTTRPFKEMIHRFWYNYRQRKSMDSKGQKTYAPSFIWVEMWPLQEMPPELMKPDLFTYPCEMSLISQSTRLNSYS
Summary of the method: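 cAMP accumulation readout: after 1 mM IBMX for 40 min, endogenous-RXFP1 OVCAR5 cells got rising peptide concentrations without FCS, 30 min, 37° C, then lysis with HTRF cAMP reagents. Nonlinear regression gave EC50; Emax expressed relative to H2-relaxin maximum, same occasion.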

[2] = Pharmacokinetic (PK) determination after i.v. or s.c. administration to rats; format: in vivo, Sprague Dawley rats; conditions: Sprague Dawley, Rat PK; for C0 / half-life: iv, 1 mg/kg i.v.; for C0: extrapolated plasma concentration at t=0, read-out: C0; for half-life / Cmax / Tmax / bioavailability: plasma; for half-life: read-out: T½ (converted); for Cmax / Tmax: sc, 3 mg/kg s.c.; for bioavailability: subcutaneous, 3 mg/kg s.c. vs 1 mg/kg i.v., dose-corrected AUC ratio
Description: Prior to the testing of a peptide batch, its purity (HPLC-UV) was determined. Dose was corrected for presence of salts, solvent and purity.
Sprague Dawley rats were dosed with study peptide at a dose of 1 mg/kg intravenously (i.v.) or 3 mg/kg subcutaneously (s.c.) as a solution in PBS (0.2 mg/ml and 0.6 mg/ml respectively).
Plasma samples were analyzed after protein precipitation via liquid chromatography mass spectrometry (LC/MS).
PK parameters and half-life were calculated using Phoenix 64 (WinNonlin 6.4)-Pharsight (Certara™) (non-compartment model). Values below the limit of quantification (BLQ) were replaced by zero for subsequent calculations and PK analysis.
T½: in-vivo half life, time required for test compound plasma concentration to be divided by two during the PK experiment.
C0: Extrapolated test compound plasma concentration at t=0 time point (i.v. route).
Cmax: maximal test compound plasma concentration at the indicated time point (s.c. route).
Tmax: Time point where Cmax is attained.
F %: s.c. vs i.v. bioavailability, dose-corrected area under curve (AUC) s.c. route divided by AUC i.v.

EC50 [1] [nM] | Emax [1] [%] | C0 [2] [nM] | half-life [2] [h] | Cmax [2] [nM] | Tmax [2] [h] | bioavailability [2] [%] | SMILES
0.01 | 91 | 3000 | 3.7 | 2000 | 5 | 65 | CCCCCCCCCCCCCCCCCC(=O)N[C@@H](CCC(=O)N[C@@H](CCC(=O)N[C@@H](CCC(=O)N[C@@H](CCC(=O)NCCCC[C@H](NC(=O)CCOCCOCCOCCOCCOCCOCCOCCOCCOCCOCCOCCOCCNC(=O)[C@H](CCCCNC(C)=O)NC(=O)[C@H](CCCCN)NC(=O)[C@H](CCCNC(=N)N)NC(=O)[C@](C)(CCCCN)NC(=O)[C@H](CO)NC(=O)[C@H](Cc1c[nH]c2ccccc12)NC(=O)[C@@H](NC(=O)[C@H](CO)NC(=O)[C@H](CCCC)NC(=O)CNC(=O)[C@H](CCC(=O)O)NC(=O)C(C)(C)NC(=O)C(C)(C)NC(=O)[C@@H](NC(=O)[C@H](CCCCNC(C)=O)NC(=O)[C@H](C)NC(=O)[C@H](CCCNC(=N)N)NC(=O)[C@@H](NC(=O)[C@H](CCCCN)NC(=O)[C@H](CCC(=O)O)NC(=O)[C@H](CCCNC(=N)N)NC(=O)CNC(=O)[C@H](CCC(=O)O)NC(=O)[C@H](CC(C)C)NC(C)=O)C(C)C)[C@@H](C)CC)[C@@H](C)O)C(N)=O)C(=O)O)C(=O)O)C(=O)O)C(=O)O [compound 42] (Ac-LEGREKVRAK(Ac)I[Aib][Aib]EG[Nle]STWS[αMeK]RKK(Ac)[PEG12]K([γGlu-γGlu-γGlu-γGlu-Stearoyl])-NH2)
 | 79 | 2900 | 2.88 | 2200 | 7 | 65 | CCCCCCCCCCCCCCCCCC(=O)N[C@@H](CCC(=O)N[C@@H](CCC(=O)N[C@@H](CCC(=O)NCCCC[C@H](NC(=O)CCOCCOCCOCCOCCOCCOCCOCCOCCOCCOCCOCCOCCNC(=O)[C@H](CCCCN)NC(=O)[C@H](CCCNC(=N)N)NC(=O)C(C)(C)NC(=O)[C@H](CO)NC(=O)[C@H](Cc1cccc2ccccc12)NC(=O)[C@@H](NC(=O)[C@H](CO)NC(=O)[C@H](CCCC)NC(=O)CNC(=O)[C@H](CCC(=O)O)NC(=O)C(C)(C)NC(=O)C(C)(C)NC(=O)[C@@H](NC(=O)[C@H](CCCCNC(C)=O)NC(=O)[C@H](C)NC(=O)[C@H](CCCNC(=N)N)NC(=O)[C@@H](NC(=O)[C@H](CCCCN)NC(=O)[C@H](CCC(=O)O)NC(=O)[C@H](CCCNC(=N)N)NC(=O)CNC(=O)[C@H](CCC(=O)O)NC(=O)[C@H](CC(C)C)NC(C)=O)C(C)C)[C@@H](C)CC)[C@@H](C)O)C(N)=O)C(=O)O)C(=O)O)C(=O)O [compound 45] (Ac-LEGREKVRAK(Ac)I[Aib][Aib]EG[Nle]ST[1Nal]S[Aib]RK[PEG12]K([γGlu-γGlu-γGlu-Stearoyl])-NH2)
0.07 | 85 | 3000 | 3.89 | 1630 | 7 | 70 | CCCCCCCCCCCCCCCCCC(=O)N[C@@H](CCC(=O)N[C@@H](CCC(=O)N[C@@H](CCC(=O)NCCOCCOCC(=O)NCCOCCOCC(=O)NCCOCCOCC(=O)NCCCC[C@H](NC(=O)[C@H](CCCCN)NC(=O)[C@H](CCCNC(=N)N)NC(=O)C(C)(C)NC(=O)[C@H](CO)NC(=O)[C@H](Cc1c[nH]c2ccccc12)NC(=O)[C@@H](NC(=O)[C@H](CO)NC(=O)[C@H](CCCC)NC(=O)CNC(=O)[C@H](CCC(=O)O)NC(=O)C(C)(C)NC(=O)C(C)(C)NC(=O)[C@@H](NC(=O)[C@H](CCC(N)=O)NC(=O)[C@H](C)NC(=O)[C@H](CCCNC(=N)N)NC(=O)[C@@H](NC(=O)[C@H](CCCCN)NC(=O)[C@H](CCC(=O)O)NC(=O)[C@H](CCCNC(=N)N)NC(=O)CNC(=O)[C@H](CCC(=O)O)NC(=O)[C@H](CC(C)C)NC(C)=O)C(C)C)[C@@H](C)CC)[C@@H](C)O)C(N)=O)C(=O)O)C(=O)O)C(=O)O [compound 74] (Ac-LEGREKVRAQI[Aib][Aib]EG[Nle]STWS[Aib]RKK([AEEA-AEEA-AEEA-γGlu-γGlu-γGlu-Stearoyl])-NH2)
0.02 | 89 | 2600 | 3.4 | 1200 | 7 | 114 | CCCCCCCCCCCCCCCCCC(=O)N[C@@H](CCC(=O)N[C@@H](CCC(=O)N[C@@H](CCC(=O)N[C@@H](CCC(=O)NCCOCCOCC(=O)NCCOCCOCC(=O)NCCOCCOCC(=O)NCCCC[C@H](NC(=O)[C@H](CCCCNC(C)=O)NC(=O)[C@H](CCCCN)NC(=O)[C@H](CCCNC(=N)N)NC(=O)[C@](C)(CCCCN)NC(=O)[C@H](CO)NC(=O)[C@H](Cc1c[nH]c2ccccc12)NC(=O)[C@@H](NC(=O)[C@H](CO)NC(=O)[C@H](CCCC)NC(=O)CNC(=O)[C@H](CCC(=O)O)NC(=O)C(C)(C)NC(=O)C(C)(C)NC(=O)[C@@H](NC(=O)[C@H](CCCCNC(C)=O)NC(=O)[C@H](C)NC(=O)[C@H](CCCNC(=N)N)NC(=O)[C@@H](NC(=O)[C@H](CCCCN)NC(=O)[C@H](CCC(=O)O)NC(=O)[C@H](CCCNC(=N)N)NC(=O)CNC(=O)[C@H](CCC(=O)O)NC(=O)[C@H](CC(C)C)NC(C)=O)C(C)C)[C@@H](C)CC)[C@@H](C)O)C(N)=O)C(=O)O)C(=O)O)C(=O)O)C(=O)O [compound 82] (Ac-LEGREKVRAK(Ac)I[Aib][Aib]EG[Nle]STWS[αMeK]RKK(Ac)K([AEEA-AEEA-AEEA-γGlu-γGlu-γGlu-γGlu-Stearoyl])-NH2)
 | 88 | 2900 | 3 | 1300 | 7 | 89 | CCCCCCCCCCCCCCCCCC(=O)N[C@@H](CCC(=O)N[C@@H](CCC(=O)N[C@@H](CCC(=O)N[C@@H](CCC(=O)NCCOCCOCC(=O)NCCOCCOCC(=O)NCCOCCOCC(=O)NCCOCCOCC(=O)NCCCC[C@H](NC(=O)[C@H](CCCCN)NC(=O)[C@H](CCCCN)NC(=O)[C@H](CCCNC(=N)N)NC(=O)C(C)(C)NC(=O)[C@H](CO)NC(=O)[C@H](Cc1c[nH]c2ccccc12)NC(=O)[C@@H](NC(=O)[C@H](CO)NC(=O)[C@H](CCCC)NC(=O)CNC(=O)[C@H](CCC(=O)O)NC(=O)C(C)(C)NC(=O)C(C)(C)NC(=O)[C@@H](NC(=O)[C@H](CCCCNC(C)=O)NC(=O)[C@H](C)NC(=O)[C@H](CCCNC(=N)N)NC(=O)[C@@H](NC(=O)[C@H](CCCCN)NC(=O)[C@H](CCC(=O)O)NC(=O)[C@H](CCCNC(=N)N)NC(=O)CNC(=O)[C@H](CCC(=O)O)NC(=O)[C@H](CC(C)C)NC(C)=O)C(C)C)[C@@H](C)CC)[C@@H](C)O)C(N)=O)C(=O)O)C(=O)O)C(=O)O)C(=O)O [compound 91] (Ac-LEGREKVRAK(Ac)I[Aib][Aib]EG[Nle]STWS[Aib]RKKK([AEEA-AEEA-AEEA-AEEA-γGlu-γGlu-γGlu-γGlu-Stearoyl])-NH2)
0.16 | 90 | 3100 | 2.8 | 2360 | 7 | 41 | CCCCCCCCCCCCCCCCCC(=O)N[C@@H](CCC(=O)NCCOCCOCC(=O)N[C@@H](CCC(=O)N[C@@H](CCC(=O)NCCOCCOCC(=O)NCCOCCOCC(=O)NCCCC[C@H](NC(=O)[C@H](CCCCN)NC(=O)[C@H](CCCNC(=N)N)NC(=O)C(C)(C)NC(=O)[C@H](CO)NC(=O)[C@H](Cc1c[nH]c2ccccc12)NC(=O)[C@@H](NC(=O)[C@H](CO)NC(=O)[C@H](CCCC)NC(=O)CNC(=O)[C@H](CCC(=O)O)NC(=O)C(C)(C)NC(=O)C(C)(C)NC(=O)[C@@H](NC(=O)[C@H](CCC(N)=O)NC(=O)[C@H](C)NC(=O)[C@H](CCCNC(=N)N)NC(=O)[C@@H](NC(=O)[C@H](CCCCN)NC(=O)[C@H](CCC(=O)O)NC(=O)[C@H](CCCNC(=N)N)NC(=O)CNC(=O)[C@H](CCC(=O)O)NC(=O)[C@H](CC(C)C)NC(C)=O)C(C)C)[C@@H](C)CC)[C@@H](C)O)C(N)=O)C(=O)O)C(=O)O)C(=O)O [compound 100] (Ac-LEGREKVRAQI[Aib][Aib]EG[Nle]STWS[Aib]RKK([AEEA-AEEA-γGlu-γGlu-AEEA-γGlu-Stearoyl])-NH2)
